Where a SMILES comes first, the peptide text is derived from it.
What was measured:
Experiment in all cases: HLA class I binding assay (cell-free competition, fluorescence polarization)
HLA B*4402 = HLA B*4402 (Homo sapiens, UniProt P01889, A223V/A65T/A93T/A95T/D201E/D98Y/E176V/E187L/E204Q/E69K/G107R/H137Y/K202T/L105A/L119I/N104T/N87E/Q56L/Q94N/R106L/R155S/R180D/S101N/S121R/S35A/S48T/T118I/V36M/W191S/Y140D/Y91S)
HLA A*0301 = HLA A*0301 (Homo sapiens, UniProt P04439)
HLA A*0101 = HLA A*0101 (Homo sapiens, UniProt P04439, A114D/A174V/A182V/D101N/D185E/E176A/E190D/L180R/Q94H/R68K/S129P/T187R/V100A/V91M/W191G)
HLA A*0201 = HLA A*0201 (Homo sapiens, UniProt P04439, D140Y/D185E/D98H/E176V/E277Q/G131W/G231S/I119V/I121R/I166T/I218V/L300P/L318F/N151K/N90K/P208A/P217A/Q86G/Q94H/R138H/R169H/T345S)
HLA B*0702 = HLA B*0702 (Homo sapiens, UniProt P01889)
HLA A*2402 = HLA A*2402 (Homo sapiens, UniProt P04439, D101N/D140Y/D185E/E176V/E190D/F33S/G103R/G107R/I119L/I121M/I306V/K335N/L105A/L180Q/L300P/N151K/N90K/Q86E/Q94H/R106L/R138H/R89G/T104I/T345S/V100E/W191G/Y123F)

SMILES | IC50 (HLA B*4402) | IC50 (HLA B*0702) | other results
C[C@H](N)C(=O)N[C@@H](CO)C(=O)N[C@@H](Cc1ccccc1)C(=O)N[C@@H](CO)C(=O)N[C@@H](C)C(=O)N[C@@H](CO)C(=O)N[C@H](C(=O)NCC(=O)N[C@@H](Cc1ccc(O)cc1)C(=O)O)[C@@H](C)O (H-ASFSASTGY-OH) | 31.7 µM |  | IC50 (HLA A*0301): 2.37 µM; IC50 (HLA A*0101): > 1000 µM
CC(C)[C@H](NC(=O)[C@H](CCC(=O)O)NC(=O)[C@H](Cc1ccccc1)NC(=O)[C@@H](NC(=O)[C@H](CC(=O)O)NC(=O)[C@@H](N)CC(=O)O)[C@@H](C)O)C(=O)N[C@@H](Cc1ccc(O)cc1)C(=O)N[C@@H](CO)C(=O)N[C@@H](CCC(=O)O)C(=O)N[C@@H](Cc1ccc(O)cc1)C(=O)O (H-DDTFEVYSEY-OH; N-terminus assumed) | > 1000 µM |  | IC50 (HLA A*0101): > 1000 µM
CC[C@H](C)[C@H](NC(=O)CNC(=O)[C@H](CO)NC(=O)[C@H](CC(N)=O)NC(=O)[C@H](CC(=O)O)NC(=O)[C@@H](N)Cc1ccccc1)C(=O)N[C@@H](CO)C(=O)N[C@@H](CC(C)C)C(=O)N[C@@H](CC(C)C)C(=O)O (H-FDNSGISLL-OH) | > 1000 µM |  | IC50 (HLA A*0201): 229 µM
CC[C@H](C)[C@H](NC(=O)[C@H](CC(N)=O)NC(=O)[C@H](CCCCN)NC(=O)[C@H](CCCCN)NC(=O)[C@H](CCCCN)NC(=O)[C@H](CC(C)C)NC(=O)[C@@H](N)Cc1ccccc1)C(=O)N[C@H](C(=O)N[C@@H](CC(C)C)C(=O)O)[C@@H](C)O (H-FLKKKNITL-OH) |  | 25.4 µM | IC50 (HLA A*0201): 5.34 µM
CC(C)C[C@H](NC(=O)[C@H](CO)NC(=O)[C@@H]1CCCN1C(=O)[C@H](CCCCN)NC(=O)[C@H](CC(N)=O)NC(=O)[C@H](CC(C)C)NC(=O)[C@H](CC(C)C)NC(=O)[C@H](CCCCN)NC(=O)[C@@H]1CCCN1C(=O)[C@@H](N)Cc1ccccc1)C(=O)O (H-FPKLLNKPSL-OH) |  | 73.1 µM | 
N=C(N)NCCC[C@H](NC(=O)[C@H](Cc1ccc(O)cc1)NC(=O)[C@H](CCCCN)NC(=O)[C@@H]1CCCN1C(=O)[C@@H](N)Cc1c[nH]cn1)C(=O)N[C@@H](CC(N)=O)C(=O)N[C@@H](Cc1ccccc1)C(=O)N[C@@H](CCCCN)C(=O)N[C@@H](Cc1ccccc1)C(=O)O (H-HPKYRNFKF-OH) |  | 0.336 µM | 
CC[C@H](C)[C@H](NC(=O)[C@H](CC(N)=O)NC(=O)[C@@H](NC(=O)[C@@H]1CCCN1C(=O)[C@H](CCSC)NC(=O)[C@@H]1CCCN1C(=O)[C@@H](N)Cc1c[nH]cn1)[C@@H](C)CC)C(=O)N[C@@H](CCCCN)C(=O)N[C@@H](CC(C)C)C(=O)O (H-HPMPINIKL-OH) |  | 0.168 µM | 
CC[C@H](C)[C@H](N)C(=O)N1CCC[C@H]1C(=O)N1CCC[C@H]1C(=O)N[C@@H](CCC(N)=O)C(=O)N[C@H](C(=O)N[C@@H](Cc1ccccc1)C(=O)N[C@@H](CC(=O)O)C(=O)N[C@@H](Cc1ccc(O)cc1)C(=O)N1CCC[C@H]1C(=O)N[C@H](C(=O)O)[C@@H](C)CC)C(C)C (H-IPPQVFDYPI-OH) |  | 245 µM | 
CC[C@H](C)[C@H](NC(=O)[C@H](CO)NC(=O)[C@H](CCCCN)NC(=O)[C@H](CO)NC(=O)[C@H](CC(N)=O)NC(=O)[C@@H](NC(=O)[C@H](CO)NC(=O)[C@H](Cc1ccc(O)cc1)NC(=O)[C@H](CC(C)C)NC(=O)[C@@H](N)CCCCN)[C@@H](C)CC)C(=O)O (H-KLYSINSKSI-OH) |  | 225 µM | IC50 (HLA A*0201): 57.7 µM
N=C(N)NCCC[C@H](NC(=O)[C@H](Cc1c[nH]c2ccccc12)NC(=O)[C@H](Cc1ccccc1)NC(=O)[C@H](CC(N)=O)NC(=O)[C@@H]1CCCN1C(=O)[C@@H](N)CCCCN)C(=O)N[C@@H](Cc1ccccc1)C(=O)N[C@@H](CCC(N)=O)C(=O)N[C@@H](CC(=O)O)C(=O)N[C@@H](Cc1ccc(O)cc1)C(=O)O (H-KPNFWRFQDY-OH; N-terminus assumed) |  | > 1000 µM | 
CC(C)C[C@H](NC(=O)[C@H](CC(=O)O)NC(=O)[C@H](CCCNC(=N)N)NC(=O)[C@H](CCCNC(=N)N)NC(=O)[C@H](CC(=O)O)NC(=O)[C@H](CO)NC(=O)[C@H](CC(N)=O)NC(=O)[C@H](CC(C)C)NC(=O)[C@@H](N)CC(C)C)C(=O)O (H-LLNSDRRDL-OH) |  | 0.2 µM | 
CC[C@H](C)[C@H](NC(=O)[C@@H]1CCCN1C(=O)[C@@H](N)CC(C)C)C(=O)N[C@@H](CCC(=O)O)C(=O)N1CCC[C@H]1C(=O)N[C@@H](CCCCN)C(=O)N[C@@H](CCCCN)C(=O)N[C@@H](CC(C)C)C(=O)N[C@@H](C)C(=O)O (H-LPIEPKKLA-OH) |  | 561 µM | 
CC(C)C[C@H](NC(=O)[C@H](CCC(N)=O)NC(=O)[C@@H](NC(=O)[C@@H]1CCCN1C(=O)[C@@H](N)CC(N)=O)C(C)C)C(=O)N[C@@H](CCCCN)C(=O)N[C@@H](CO)C(=O)N[C@@H](CCCCN)C(=O)N[C@@H](Cc1ccccc1)C(=O)O (H-NPVQLKSKF-OH) |  | 59.6 µM | 
CC(C)C[C@H](NC(=O)[C@H](CC(N)=O)NC(=O)[C@H](CC(C)C)NC(=O)[C@@H](N)CCCNC(=N)N)C(=O)N[C@@H](Cc1ccccc1)C(=O)N[C@@H](CS)C(=O)N[C@@H](Cc1ccccc1)C(=O)N[C@@H](CO)C(=O)N[C@@H](Cc1ccccc1)C(=O)O (H-RLNLFCFSF-OH) | > 1000 µM |  | IC50 (HLA A*2402): 11 µM
CC(C)C[C@H](NC(=O)[C@H](Cc1ccccc1)NC(=O)[C@H](CO)NC(=O)[C@H](Cc1ccccc1)NC(=O)[C@H](CS)NC(=O)[C@H](Cc1ccccc1)NC(=O)[C@H](CC(C)C)NC(=O)[C@H](CC(N)=O)NC(=O)[C@H](CC(C)C)NC(=O)[C@@H](N)CCCNC(=N)N)C(=O)O (H-RLNLFCFSFL-OH) | 421 µM |  | IC50 (HLA A*0301): 6.12 µM; IC50 (HLA A*0201): 161 µM
CC[C@H](C)[C@H](NC(=O)[C@H](CC(N)=O)NC(=O)[C@@H](N)CCCNC(=N)N)C(=O)N[C@H](C(=O)N[C@@H](CO)C(=O)N[C@@H](CCCCN)C(=O)N[C@@H](Cc1c[nH]cn1)C(=O)N[C@H](C(=O)N[C@@H](CO)C(=O)N[C@H](C(=O)O)C(C)C)[C@@H](C)O)[C@@H](C)CC (H-RNIISKHTSV-OH) |  | 505 µM | 
CC[C@H](C)[C@H](NC(=O)[C@@H](N)CO)C(=O)N[C@@H](C)C(=O)N[C@@H](CO)C(=O)N[C@@H](CCCCN)C(=O)N[C@@H](CC(N)=O)C(=O)N[C@@H](CC(C)C)C(=O)N[C@@H](CCSC)C(=O)N[C@@H](Cc1c[nH]c2ccccc12)C(=O)N[C@H](C(=O)O)C(C)C (H-SIASKNLMWV-OH) |  | > 1000 µM | IC50 (HLA A*0301): > 1000 µM; IC50 (HLA A*0201): 284 µM
CC(C)C[C@H](NC(=O)[C@H](Cc1ccccc1)NC(=O)[C@@H]1CCCN1C(=O)[C@H](Cc1c[nH]cn1)NC(=O)[C@H](CCCCN)NC(=O)[C@@H](N)CO)C(=O)N[C@@H](CCCCN)C(=O)N[C@@H](CO)C(=O)NCC(=O)N[C@@H](Cc1ccccc1)C(=O)O (H-SKHPFLKSGF-OH; N-terminus assumed) | > 1000 µM |  | 
CSCC[C@H](NC(=O)[C@@H](NC(=O)[C@H](CC(=O)O)NC(=O)[C@H](Cc1c[nH]cn1)NC(=O)[C@@H]1CCCN1C(=O)[C@@H](N)CO)[C@@H](C)O)C(=O)N[C@@H](CCC(N)=O)C(=O)N[C@@H](CCCCN)C(=O)N[C@@H](CC(=O)O)C(=O)N[C@@H](CC(=O)O)C(=O)O (H-SPHDTMQKDD-OH; N-terminus assumed) |  | > 1000 µM | 
CSCC[C@H](NC(=O)[C@H](CC(N)=O)NC(=O)[C@H](CCCCN)NC(=O)[C@H](CC(N)=O)NC(=O)[C@H](CCCCN)NC(=O)[C@H](Cc1ccccc1)NC(=O)[C@H](Cc1ccc(O)cc1)NC(=O)[C@H](CCC(=O)O)NC(=O)[C@@H](N)[C@@H](C)O)C(=O)O (H-TEYFKNKNM-OH) | 31.4 µM |  | 
CC[C@H](C)[C@H](NC(=O)[C@@H](N)[C@@H](C)O)C(=O)N[C@@H](Cc1ccc(O)cc1)C(=O)NCC(=O)N[C@@H](CCCCN)C(=O)NCC(=O)NCC(=O)N[C@@H](Cc1ccccc1)C(=O)N[C@@H](CCC(N)=O)C(=O)N[C@@H](Cc1ccccc1)C(=O)O (H-TIYGKGGFQF-OH) |  | 109 µM | 
CC[C@H](C)[C@H](NC(=O)[C@H](CCCCN)NC(=O)CNC(=O)CNC(=O)[C@H](CC(C)C)NC(=O)[C@H](CCC(N)=O)NC(=O)[C@H](CO)NC(=O)[C@H](CCC(=O)O)NC(=O)[C@@H](N)Cc1ccc(O)cc1)C(=O)O (H-YESQLGGKI-OH) | 66.3 µM |  | 
CC[C@H](C)[C@H](NC(=O)[C@@H]1CCCN1C(=O)[C@@H](N)Cc1ccc(O)cc1)C(=O)N[C@@H](CCC(=O)O)C(=O)N[C@@H](CCCCN)C(=O)N[C@@H](CC(C)C)C(=O)NCC(=O)N[C@@H](Cc1c[nH]cn1)C(=O)N[C@H](C(=O)O)C(C)C (H-YPIEKLGHV-OH) |  | 0.257 µM | 
CC(C)C[C@H](NC(=O)[C@H](C)NC(=O)[C@H](CC(=O)O)NC(=O)[C@H](Cc1ccccc1)NC(=O)[C@@H](NC(=O)[C@H](CC(N)=O)NC(=O)[C@@H]1CCCN1C(=O)[C@@H]1CCCN1C(=O)[C@@H](N)Cc1ccccc1)[C@@H](C)O)C(=O)O [FPPNTFDAL] (H-FPPNTFDAL-OH) |  | 2.72 µM | 
CC(C)C[C@H](NC(=O)[C@H](C)NC(=O)[C@H](CO)NC(=O)[C@@H](NC(=O)[C@H](CCCCN)NC(=O)[C@H](CC(=O)O)NC(=O)[C@H](CCCNC(=N)N)NC(=O)[C@H](CS)NC(=O)[C@@H](N)Cc1c[nH]cn1)[C@@H](C)O)C(=O)O [HCRDKTSAL] (H-HCRDKTSAL-OH) |  | 28.6 µM | 

— PMC8138313, “Identification, Selection and Immune Assessment of Liver Stage CD8 T Cell Epitopes From Plasmodium falciparum” (Frontiers in Immunology, 2021)
